In US20240024338A1, “CARBIDOPA AND L-DOPA PRODRUGS AND METHODS OF USE” (AbbVie Inc., priority 2016, published 2024):

Tests used:
[1] = In vitro bioconversion study, liver S9 fraction, rat; format: in vitro ADME; settings: rat liver S9 fraction 1 mg/mL, prodrug 2.5 μg/mL, 37° C.
Description: (§2) The in vitro bioconversion of the L-dopa phosphate prodrugs to L-dopa and the carbidopa phosphate prodrugs to carbidopa was evaluated in several studies. In brief, the L-dopa and carbidopa phosphate prodrugs (2.5 μg/mL) were incubated with tissue homogenate or fractions from rats, mini-pigs, or human, including blood, skin homogenate (3 mg/mL), liver microsomes (1 mg/mL), liver S9 fraction (1 mg/mL), kidney S9 fraction (1 mg/mL), and intestine S9 fractions (1 mg/mL). The reaction mixtures were incubated at 37° C. for 5 to 6 time points within 1 to 2 hours. At the end of each time point, the reaction mixtures were quenched by 2 to 3 volumes of 5% trichloroacetic acid in water. After quenching, the mixtures were centrifuged at 3000 rpm for 20 minutes, and the supernatants were analyzed by LC-MS for quantitation of the prodrug, L-dopa or carbidopa. The in vitro bioconversion was assessed by monitoring both time-dependent depletion of the prodrug and the formation of the corresponding L-dopa or carbidopa.

[2] = In vitro bioconversion study (blood), rat; settings: prodrug 2.5 μg/mL, 37° C.
Description: The in vitro bioconversion of the L-dopa phosphate prodrugs to L-dopa and the carbidopa phosphate prodrugs to carbidopa was evaluated in several studies. […] The reaction mixtures were incubated at 37° C. for 5 to 6 time points within 1 to 2 hours. At the end of each time point, the reaction mixtures were quenched by 2 to 3 volumes of 5% trichloroacetic acid in water. After quenching, the mixtures were centrifuged at 3000 rpm for 20 minutes, and the supernatants were analyzed by LC-MS for quantitation of the prodrug, L-dopa or carbidopa. The in vitro bioconversion was assessed by monitoring both time-dependent depletion of the prodrug and the formation of the corresponding L-dopa or carbidopa.

[3] = 1-Day stability study of prodrugs in aqueous solution; format: physicochemical; settings: aqueous solution 80 μg/mL, ambient storage, pH 7.0
Description: The L-dopa phosphate prodrugs and the carbidopa phosphate prodrugs were evaluated in a stability study.

[4] = In vitro bioconversion study (blood), human; format: in vitro ADME; settings: prodrug 2.5 μg/mL, 37° C.
Description: as §2

[5] = In vitro bioconversion study (intestinal S9 fractions), rat; format: in vitro ADME; settings: rat intestinal S9 fraction 1 mg/mL, prodrug 2.5 μg/mL, 37° C.
Excerpt: (§1) The t1/2 appeared to be shorter in human intestinal S9 than in rat intestinal S9.

[6] = In vitro bioconversion study, liver S9 fraction, human; format: in vitro ADME; settings: human liver S9 fraction 1 mg/mL, prodrug 2.5 μg/mL, 37° C.
Description: as §2

[7] = In vitro bioconversion study (skin homogenates), mini-pig; settings: mini-pig skin homogenate 3 mg/mL, prodrug 2.5 μg/mL, 37° C.
rats = assay: Local tolerability in rats, single SC bolus dose; format: in vivo; settings: concentrations up to 125 mg/mL
[8] = In vitro bioconversion study, kidney S9 fraction, rat; format: in vitro ADME; settings: rat kidney S9 fraction 1 mg/mL, prodrug 2.5 μg/mL, 37° C.
Description: as §2

[9] = In vitro bioconversion study (blood), mini-pig; format: in vitro ADME; settings: prodrug 2.5 μg/mL, 37° C.
Description: as §2

[10] = In vitro bioconversion study (intestinal S9 fractions), human; format: in vitro ADME; settings: human intestinal S9 fraction 1 mg/mL, prodrug 2.5 μg/mL, 37° C.
Excerpt: as §1

[11] = In vitro bioconversion study (skin homogenates), rat; settings: rat skin homogenate 3 mg/mL, prodrug 2.5 μg/mL, 37° C.
[12] = In vitro bioconversion study (skin homogenates), human; settings: human skin homogenate 3 mg/mL, prodrug 2.5 μg/mL, 37° C.
[13] = In vitro bioconversion study, human liver microsomes; format: in vitro ADME; settings: human liver microsomes 1 mg/mL, prodrug 2.5 μg/mL, 37° C.
Description: as §2

[14] = In vitro bioconversion study, kidney S9 fraction, human; format: in vitro ADME; settings: human kidney S9 fraction 1 mg/mL, prodrug 2.5 μg/mL, 37° C.
Description: as §2

[15] = In vitro bioconversion study, liver S9 fraction, mini-pig; format: in vitro ADME; settings: mini-pig liver S9 fraction 1 mg/mL, prodrug 2.5 μg/mL, 37° C.
Description: as §2

[16] = Phosphate prodrug solubility study in water; format: physicochemical; settings: water, ambient, visual assessment, pH 5.5, Amorphous
Description: The L-dopa phosphate prodrugs and the carbidopa phosphate prodrugs were evaluated in a solubility study. The solubility values of the phosphate prodrugs in water under ambient conditions were determined by visual assessment. Table 13-A reports the results of the study, including the measured values for L-dopa and carbidopa.

[17] = 1-Day stability study, diphosphate combination solution; format: physicochemical; settings: combination solution: L-dopa 3′,4′-diphosphate 35 mg/mL + carbidopa 3′,4′-diphosphate 8.7 mg/mL, pH 6.2, room temperature, nitrogen purged
Description: In addition, a solution combining the diphosphates of each compound (L-dopa 3′, 4′-diphosphate at 35 mg/mL and carbidopa 3′, 4′-diphosphate at 8.7 mg/mL) was monitored over one day at room temperature. This sample was purged with nitrogen to remove oxygen.

[18] = listed as diphosphate prodrug of L-dopa

For `N[C@@H](Cc1ccc(OP(=O)(O)O)c(OP(=O)(O)O)c1)C(=O)O` [L-dopa 3′,4′-diphosphate], the “stability and formation of L-dopa or carbidopa” value (“stability and formation” for short) [1] was “stable without formation of L-dopa or carbidopa observed”, the “L-Dopa or Carbidopa Formation” value [2] was “Yes” and the T1/2 [2] was 6 min. The “% Remaining After One Day” value [3] was >99%, the “L-Dopa or Carbidopa Formation” value [4] was “Yes” and the T1/2 [4] was 138 min. For the same compound, the “L-Dopa or Carbidopa Formation” value [5] was “Yes”, the T1/2 [5, 18] was “rapidly dephosphorylated” and the “stability and formation” value [6] was “stable without formation of L-dopa or carbidopa observed”. The “L-Dopa or Carbidopa Formation” value [7] was “No”, the T1/2 [7] was “stable” and the “clinical signs or microscopic findings of local intolerance” value (rats) was “no adverse clinical signs or microscopic findings indicative of local intolerance”. The “stability and formation” value [8] was “stable without formation of L-dopa or carbidopa observed”, the “L-Dopa or Carbidopa Formation” value [9] was “Yes” and the T1/2 [9] was 125 min. For the same compound, the “L-Dopa or Carbidopa Formation” value [10] was “Yes”, the T1/2 [10, 18] was “rapidly dephosphorylated” and the “L-Dopa or Carbidopa Formation” value [11] was “No”. For the same compound, the T1/2 [11] was “stable”, the “L-Dopa or Carbidopa Formation” value [12] was “No” and the T1/2 [12] was “stable”. For the same compound, the “stability and formation” value [13] was “stable without formation of L-dopa or carbidopa observed”, the “stability and formation” value [14] was “stable without formation of L-dopa or carbidopa observed” and the “stability and formation” value [15] was “stable without formation of L-dopa or carbidopa observed”. For the same compound, the Solubility [16] was >330 mg/mL and the “% Remaining After One Day” value [17] was >99%.
